The results in this text go back to patent US20260049076A1, “Tertiary Amine Substituted Bicyclic Compounds Useful as T Cell Activators” (BRISTOL-MYERS SQUIBB COMPANY, priority 2022, published 2026).

One assay concerns the target T1, human DGKα (Homo sapiens, UniProt P23743).
T1 construct: TVMV protease cleavage site (C); Hexa-His (C); made in house; host or cells: Sf9 insect cells (baculovirus)
In words: In vitro DGK inhibition assay, DGKα liposome (LIPGLO) assay. The class given is biochemical. The note with it: read-out: Enzyme Inhibition DGKalpha IC50. As for the experimental part:
(§1) The DGKα and DGKζ reactions were performed using either extruded liposome (DGKα and DGKζ LIPGLO assays) or detergent/lipid micelle substrate (DGKα and DGKζ assays). The reactions were carried out in 50 mM MOPS pH 7.5, 100 mM NaCl, 10 mM MgCl2, 1 μM CaCl2, and 1 mM DTT (assay buffer). The reactions using a detergent/lipid micelle substrate also contained 50 mM octyl B-D-glucopyranoside. The lipid substrate concentrations were 11 mM PS and 1 mM DAG for the detergent/lipid micelle reactions. The lipid substrate concentrations were 2 mM PS, 0.25 mM DAG, and 2.75 mM PC for the extruded liposome reactions (5 mM total lipid). The reactions were carried out in 150 μM ATP The enzyme concentrations for the DGKα and DGKζ were 5 nM
(§2) The compound inhibition studies were carried out as follows: 25 nL (ADPGLO assay) or 50 nL (LIPGLO assay) droplets of each test compound (top concentration 10 mM with 11 point, 3-fold dilution series for each compound) solubilized in DMSO were transferred to wells of a white 1536 well plate (Corning 3725). A 5 mL enzyme/lipid substrate solution at 2× final reaction concentration was prepared by combining 2.5 mL 4× enzyme solution (20 nM DGKα, or DGKζ (prepared as described below) in assay buffer) and 2.5 mL of either 4× liposome or 4× detergent/lipid micelle solution (compositions described below) and incubated at room temperature for 10 minutes. Next, 1 μL 2× enzyme/lipid substrate solution was added to wells containing the test compound and reactions were initiated with the addition of 1 μL 300 uM ATP. The reactions were allowed to proceed for 2 hr (ADPGLO assay) or 1 hr (LIPGLO assay), after which 2 μL Glo Reagent (Promega V9101) was added and incubated for 40 minutes. Next, 4 μL Kinase Detection Reagent was added and incubated for 30 minutes. Luminescence was recorded using an EnVision microplate reader. […] The compounds were evaluated at 11 concentrations to determine IC50.
(§3) The lipid composition was 5 mol % DAG (Avanti 8008110), 40 mol % PS (Avanti 840035P), and 55 mol % PC (Avanti 850457) at a total lipid concentration of 7-8 mg/mL for the liposome solution. The PC, DAG, and PS were dissolved in chloroform, combined, and dried in vacuo to a thin film. The lipids were hydrated to 20 mM in 50 mM MOPS pH 7.5, 100 mM NaCl, 5 mM MgCl2, and were freeze-thawed five times. The lipid suspension was extruded through a 100 nm polycarbonate filter 10-12 times. […] The liposome preparation was stored at 4° C. for as long as four weeks.
(§4) The lipid composition was 5 mol % DAG (Avanti 8008110), 40 mol % PS (Avanti 840035P), and 55 mol % PC (Avanti 850457) at a total lipid concentration of 15.2 mg/mL for the 4× liposome solution. The PC, DAG, and PS were dissolved in chloroform, combined, and dried in vacuo to a thin film. The lipids were hydrated to 20 mM in 50 mM MOPS pH 7.5, 100 mM NaCl, 5 mM MgCl2, and were freeze-thawed five times. The lipid suspension was extruded through a 100 nm polycarbonate filter eleven times. […] The liposome preparation was stored at 4° C. for as long as four weeks.
(§5) Human DGK-alpha-TVMV-His-pFBgate and human DGK-zeta-transcript variant-2-TVMV-His-pFBgate baculovirus samples were generated using the Bac-to-Bac baculovirus expression system (Invitrogen) according to the manufacturer's protocol. […] Baculovirus amplification was achieved using infected Sf9 cells at 1:1500 virus/cell ratios, and grown for 65 hours at 27° C. post-transfection.
(§6) The expression scale up for each protein was carried out in the Cellbag 50L WAVE-Bioreactor System 20/50 from GE Healthcare Bioscience. 12 L of 2×10^6 cells/mL Sf9 cells (Expression System, Davis, CA) grown in ESF921 insect medium (Expression System) were infected with virus stock at 1:200 virus/cell ratios, and grown for 66-68 hours at 27° C. post-infection.

The target of another assay is T2, human DGKζ (Homo sapiens, UniProt Q13574).
T2 construct: TVMV protease cleavage site (C); Hexa-His (C); made in house; host or cells: Sf9 insect cells (baculovirus)
In words: In vitro DGK inhibition assay, DGKζ liposome (LIPGLO) assay. It counts as biochemical. The conditions noted are these: read-out: Enzyme Inhibition DGKzeta IC50. As for the experimental part:
as §1, §2, §3, §4, §5, §6

Where only a bound is given, the exact number is not on record here.

T2 sequence (Q13574 with tags, fused parts or gaps isoform Q13574-4): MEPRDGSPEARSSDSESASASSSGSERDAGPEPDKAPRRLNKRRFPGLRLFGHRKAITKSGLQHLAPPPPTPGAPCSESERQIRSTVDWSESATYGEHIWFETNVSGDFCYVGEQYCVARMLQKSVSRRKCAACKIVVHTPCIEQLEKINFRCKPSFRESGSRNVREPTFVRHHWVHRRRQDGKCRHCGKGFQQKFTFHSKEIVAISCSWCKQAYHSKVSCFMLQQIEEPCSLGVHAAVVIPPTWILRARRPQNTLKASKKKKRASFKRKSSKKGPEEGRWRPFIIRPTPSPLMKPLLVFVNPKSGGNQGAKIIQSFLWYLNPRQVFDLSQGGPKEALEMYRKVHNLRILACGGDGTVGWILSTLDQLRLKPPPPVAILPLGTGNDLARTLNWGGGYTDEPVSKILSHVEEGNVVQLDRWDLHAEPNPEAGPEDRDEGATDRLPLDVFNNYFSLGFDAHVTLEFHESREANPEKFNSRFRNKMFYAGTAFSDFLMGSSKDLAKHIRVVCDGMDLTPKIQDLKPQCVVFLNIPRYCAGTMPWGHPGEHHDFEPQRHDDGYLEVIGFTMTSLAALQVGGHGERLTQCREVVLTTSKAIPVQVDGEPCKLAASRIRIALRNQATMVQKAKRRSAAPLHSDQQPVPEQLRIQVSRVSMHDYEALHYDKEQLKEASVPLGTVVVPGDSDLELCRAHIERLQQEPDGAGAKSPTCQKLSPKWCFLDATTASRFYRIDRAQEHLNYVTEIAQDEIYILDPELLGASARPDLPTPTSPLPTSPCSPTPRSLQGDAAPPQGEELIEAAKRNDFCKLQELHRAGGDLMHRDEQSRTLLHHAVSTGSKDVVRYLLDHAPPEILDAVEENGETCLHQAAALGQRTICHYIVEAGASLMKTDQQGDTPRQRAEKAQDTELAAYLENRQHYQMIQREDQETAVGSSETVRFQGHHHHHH
T1 sequence (P23743 with tags, fused parts or gaps): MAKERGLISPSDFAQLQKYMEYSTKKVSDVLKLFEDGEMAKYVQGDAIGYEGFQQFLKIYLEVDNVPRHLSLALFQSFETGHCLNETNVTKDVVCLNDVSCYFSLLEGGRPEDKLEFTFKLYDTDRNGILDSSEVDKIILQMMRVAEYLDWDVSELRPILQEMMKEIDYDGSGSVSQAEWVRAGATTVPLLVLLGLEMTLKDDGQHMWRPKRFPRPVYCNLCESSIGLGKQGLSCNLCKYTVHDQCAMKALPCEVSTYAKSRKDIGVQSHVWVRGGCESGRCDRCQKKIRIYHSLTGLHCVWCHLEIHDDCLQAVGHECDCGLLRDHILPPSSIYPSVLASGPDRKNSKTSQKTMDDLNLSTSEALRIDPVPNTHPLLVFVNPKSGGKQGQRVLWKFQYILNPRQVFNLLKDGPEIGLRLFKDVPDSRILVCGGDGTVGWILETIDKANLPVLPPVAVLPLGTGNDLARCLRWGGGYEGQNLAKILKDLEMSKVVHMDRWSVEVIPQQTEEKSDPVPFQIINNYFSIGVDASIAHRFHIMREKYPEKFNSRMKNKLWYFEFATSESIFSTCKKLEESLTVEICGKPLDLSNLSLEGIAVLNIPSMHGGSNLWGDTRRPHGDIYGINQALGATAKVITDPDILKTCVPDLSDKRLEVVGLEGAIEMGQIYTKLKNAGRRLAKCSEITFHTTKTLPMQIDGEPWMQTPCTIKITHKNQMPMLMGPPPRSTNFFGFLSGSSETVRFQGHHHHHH

For `CN(c1ccc(F)c(F)c1)c1cc(=O)n(C)c2ccc(C#N)nc12` [Example 28, 8-((3,4-difluorophenyl)(methyl)amino)-5-methyl-6-oxo-5,6-dihydro-1,5-naphthyridine-2-carbonitrile], the IC50 (commonly the concentration at which inhibition is half-maximal) was found to be 0.44 µM on human DGKα and 120 µM at human DGKζ.

Take `CN(c1ccc(Cl)cc1)c1cc(=O)n(C)c2ccc(C#N)nc12` [Example 29, 8-((4-chlorophenyl)(methyl)amino)-5-methyl-6-oxo-5,6-dihydro-1,5-naphthyridine-2-carbonitrile]: the concentration for half-maximal inhibition (IC50) is 0.45 µM on human DGKα and 17 µM at human DGKζ.

For the compound `CN(c1nc(=O)n(C)c2ccc(Cl)nc12)C1CCCCC1` [Example 30, 6-chloro-4-(cyclohexyl(methyl)amino)-1-methylpyrido[3,2-d]pyrimidin-2(1H)-one], the values for the IC50 at human DGKα and at human DGKζ were 0.14 µM and 73 µM, respectively.

Regarding `CCCN(CC1CC1)c1nc(=O)n(C)c2ccc(Cl)nc12` [Example 31, 6-chloro-4-((cyclopropylmethyl)(propyl)amino)-1-methylpyrido[3,2-d]pyrimidin-2(1H)-one], the IC50 at human DGKα was 1 µM; at human DGKζ it was 32 µM.

Consider `CN(c1ccc(C(F)(F)F)cc1)c1cc(=O)n(C)c2ccc(C#N)nc12` [Example 33, 5-methyl-8-(methyl(4-(trifluoromethyl)phenyl)amino)-6-oxo-5,6-dihydro-1,5-naphthyridine-2-carbonitrile], for which the results for the IC50 at human DGKα and on human DGKζ were 6.1 µM and 4.1 µM, respectively.

For `CCN(c1ccc(OC)cc1)c1cc(=O)n(C)c2ccc(C#N)nc12` [Example 34, 8-(ethyl(4-methoxyphenyl)amino)-5-methyl-6-oxo-5,6-dihydro-1,5-naphthyridine-2-carbonitrile], the IC50 on human DGKα worked out at 6.5 µM; at human DGKζ, 2.5 µM.

As for `Cn1c(=O)cc(N(CC2CC2)c2ccc(F)cc2)c2nc(C#N)ccc21` [Example 35, 8-((cyclopropylmethyl)(4-fluorophenyl)amino)-5-methyl-6-oxo-5,6-dihydro-1,5-naphthyridine-2-carbonitrile], the IC50 at human DGKα stood at 0.22 µM; on human DGKζ it was 3 µM.

Turning to `COc1ccc(N(CC2CC2)c2cc(=O)n(C)c3ccc(C#N)nc23)cc1` [Example 36, 8-((cyclopropylmethyl)(4-methoxyphenyl)amino)-5-methyl-6-oxo-5,6-dihydro-1,5-naphthyridine-2-carbonitrile], the IC50 amounted to 0.89 µM at human DGKα and 0.8 µM on human DGKζ.

Regarding `Cn1c(=O)cc(N(CC2CC2)c2ccc(C3CC3)cc2)c2nc(C#N)ccc21` [Example 40, 8-((cyclopropylmethyl)(4-cyclopropylphenyl)amino)-5-methyl-6-oxo-5,6-dihydro-1,5-naphthyridine-2-carbonitrile], the IC50 at human DGKα is 2.7 µM; at human DGKζ, 0.19 µM.

Turning to `Cn1c(=O)cc(N(CC2CC2)c2ccc(OC(F)(F)F)cc2)c2nc(C#N)ccc21` [Example 41, 8-((cyclopropylmethyl)(4-(trifluoromethoxy)phenyl)amino)-5-methyl-6-oxo-5,6-dihydro-1,5-naphthyridine-2-carbonitrile], the IC50 was determined as 8.4 µM on human DGKα and 3 µM at human DGKζ.

In the case of `Cn1c(=O)cc(N(CC2CC2)c2ccc(C(F)(F)F)cc2)c2nc(C#N)ccc21` [Example 42, 8-((cyclopropylmethyl)(4-(trifluoromethyl)phenyl)amino)-5-methyl-6-oxo-5,6-dihydro-1,5-naphthyridine-2-carbonitrile], the IC50 at human DGKα was 4.4 µM; at human DGKζ, 1.1 µM.

On to `Cn1c(=O)cc(N(CC2CC2)c2cccc(OC(F)(F)F)c2)c2nc(C#N)ccc21` [Example 43, 8-((cyclopropylmethyl)(3-(trifluoromethoxy)phenyl)amino)-5-methyl-6-oxo-5,6-dihydro-1,5-naphthyridine-2-carbonitrile], for which the IC50 on human DGKα was found to be 1.1 µM; on human DGKζ it was 26 µM.

In the case of `Cn1c(=O)cc(N(CC2CC2)c2cccc(C(F)(F)F)c2)c2nc(C#N)ccc21` [Example 47, 8-((cyclopropylmethyl)(3-(trifluoromethyl)phenyl)amino)-5-methyl-6-oxo-5,6-dihydro-1,5-naphthyridine-2-carbonitrile], the concentration for half-maximal inhibition (IC50) at human DGKα is 0.2 µM; on human DGKζ it was 5.1 µM.

Turning to `Cc1ccccc1N(CC1CC1)c1cc(=O)n(C)c2ccc(C#N)nc12` [Example 49, 8-((cyclopropylmethyl)(o-tolyl)amino)-5-methyl-6-oxo-5,6-dihydro-1,5-naphthyridine-2-carbonitrile], the values for the IC50 at human DGKα and on human DGKζ were 4.8 µM and 56 µM, respectively.

Consider `Cn1c(=O)cc(N(CC2CC2)c2ccc(OC(F)(F)F)cc2Cl)c2nc(C#N)ccc21` [Example 50, 8-((2-chloro-4-(trifluoromethoxy)phenyl)(cyclopropylmethyl)amino)-5-methyl-6-oxo-5,6-dihydro-1,5-naphthyridine-2-carbonitrile], for which the half-maximal inhibitory concentration (IC50) on human DGKα came out at 4.8 µM; at human DGKζ it was 2.5 µM.

Consider `Cn1c(=O)cc(N(Cc2ccccc2)CC2CC2)c2nc(C#N)ccc21` [Example 52, 8-(benzyl(cyclopropylmethyl)amino)-5-methyl-6-oxo-5,6-dihydro-1,5-naphthyridine-2-carbonitrile], for which the IC50 at human DGKα was 4.5 µM; at human DGKζ it was 12 µM.

For the compound `Cn1c(=O)cc(N(CC2CC2)c2ccc(-n3cccc3)cc2)c2nc(C#N)ccc21` [Example 54, 8-((4-(1H-pyrrol-1-yl)phenyl) (cyclopropylmethyl)amino)-5-methyl-6-oxo-5,6-dihydro-1,5-naphthyridine-2-carbonitrile], the results for the IC50 at human DGKα and on human DGKζ were 3.9 µM and 1.3 µM, respectively.

With `COc1cc(N(CC2CC2)c2cc(=O)n(C)c3ccc(C#N)nc23)ccc1F` [Example 55, 8-((cyclopropylmethyl)(4-fluoro-3-methoxyphenyl)amino)-5-methyl-6-oxo-5,6-dihydro-1,5-naphthyridine-2-carbonitrile], the IC50 turned out to be 7.7 µM on human DGKα and 2.2 µM at human DGKζ.

On to `Cn1c(=O)nc(N(CC2CC2)c2ccc(C3CC3)cc2)c2nc(C#N)ccc21` [Example 57, 4-((cyclopropylmethyl)(4-cyclopropylphenyl)amino)-1-methyl-2-oxo-1,2-dihydropyrido[3,2-d]pyrimidine-6-carbonitrile], for which the IC50 on human DGKα stood at 4.2 µM; on human DGKζ, 0.15 µM.

Regarding `Cn1c(=O)nc(N(CC2CC2)c2ccc(C3CC3)cc2)c2nc(Cl)ccc21` [Example 58, 6-chloro-4-((cyclopropylmethyl) (4-cyclopropylphenyl)amino)-1-methylpyrido[3,2-d]pyrimidin-2(1H)-one], the IC50 came to 3.8 µM at human DGKα and 1 µM at human DGKζ.

`Cn1c(=O)c(C#N)c(N(CC2CC2)c2ccc(C3CC3)cc2)c2nc(C#N)ccc21` [Example 59, 8-((cyclopropylmethyl)(4-cyclopropylphenyl)amino)-5-methyl-6-oxo-5,6-dihydro-1,5-naphthyridine-2,7-dicarbonitrile]: the IC50 was greater than 37 µM at human DGKα and 6.6 µM at human DGKζ.

Take `Cn1c(=O)c(C#N)c(N(CC2CC2)c2ccc(C3CC3)cc2)c2ncccc21` [Example 60, 4-((cyclopropylmethyl)(4-cyclopropylphenyl)amino)-1-methyl-2-oxo-1,2-dihydro-1,5-naphthyridine-3-carbonitrile]: the half-inhibitory concentration (IC50) was greater than 37 µM at human DGKα and 1.4 µM on human DGKζ.
